Data as given in US7902200B2, “Chemical compounds” (AstraZeneca AB, priority 2006, dated 2011).

What was measured:
[1] = target: T1, recombinant human pancreatic GLK (Homo sapiens, UniProt P35557); experiment: GKH4 variant of GLK enzymatic activity assay (automated end-point assay); format: biochemical; settings: activation of GLK; 10 nmol/l GLK; end-point at 10 minutes; no GLKRP
T1 construct: 6-His (N); made in house; host or cells: E. coli BL21
T1 sequence (P35557 1-465): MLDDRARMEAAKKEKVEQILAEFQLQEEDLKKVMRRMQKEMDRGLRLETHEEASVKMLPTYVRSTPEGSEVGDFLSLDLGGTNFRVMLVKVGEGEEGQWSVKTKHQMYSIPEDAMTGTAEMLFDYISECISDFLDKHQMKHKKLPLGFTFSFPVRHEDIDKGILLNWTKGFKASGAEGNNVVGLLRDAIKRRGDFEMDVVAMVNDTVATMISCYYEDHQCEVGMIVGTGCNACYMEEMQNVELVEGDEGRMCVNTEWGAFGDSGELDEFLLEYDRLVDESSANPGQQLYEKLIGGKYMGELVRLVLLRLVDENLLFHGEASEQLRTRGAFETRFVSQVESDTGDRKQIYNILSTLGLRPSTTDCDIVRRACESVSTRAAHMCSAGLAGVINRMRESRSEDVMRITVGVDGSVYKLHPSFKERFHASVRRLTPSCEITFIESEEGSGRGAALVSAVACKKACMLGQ
Method: (§1) Enzymatic activity of recombinant human pancreatic GLK may be measured by incubating GLK, ATP and glucose. The rate of product formation may be determined by coupling the assay to a G-6-P dehydrogenase, NADP/NADPH system and measuring the linear increase with time of optical density at 340 nm (Brocklehurst et al (Diabetes 2004, 53, 535-541). Activation of GLK by compounds can be assessed using this assay in the presence or absence of GLKRP as described in Brocklehurst et al (Diabetes 2004, 53, 535-541).
(§2) One or both of two variants of this assay, GKH1 and GKH4, were used to test the compounds of the invention. The GKH1 assay is a manual, bench-top rate assay using 60 nmol/l of recombinant human pancreatic GLK. The GLK activity rate is measured over a 5 minute window using a Multiskan Ascent spectrophotometer. The GKH4 assay is an automated end-point assay using 10 nmol/l of recombinant human pancreatic GLK. The GLK activity is measured at 10 minutes after the initiation of the assay on a Perkin Elmer Envision spectrophotometer.

[2] = target: T1, recombinant human pancreatic GLK; experiment: GKH1 variant of GLK enzymatic activity assay (manual bench-top rate assay); format: biochemical; settings: activation of GLK; 60 nmol/l GLK; rate over 5 minute window; no GLKRP
Method: as §1, §2

| Structure (SMILES) | EC50 [1] [nM] | EC50 [2] [nM] |
| --- | --- | --- |
| Cc1cnc(NC(=O)c2cc(Oc3ccc(C(=O)N4CCC4)nc3)cc(O[C@@H]3CCN(C4CCC4)C3=O)c2)cn1 [Example 20, 3-[6-(Azetidine-1-carbonyl)pyridin-3-yl]oxy-5-[(3R)-1-cyclobutyl-2-oxo-pyrrolidin-3-yl]oxy-N-(5-methylpyrazin-2-yl)benzamide] | 900 | 420 |
| CCN1CC[C@H](Oc2cc(Oc3ccc(C(=O)N4CCC4)nc3)cc(C(=O)Nc3cnc(C)cn3)c2)C1=O [Example 23, 3-[6-(Azetidine-1-carbonyl)pyridin-3-yl]oxy-5-[(3S)-1-ethyl-2-oxo-pyrrolidin-3-yl]oxy-N-(5-methylpyrazin-2-yl)benzamide] | 220 | 50 |
| CN1CC[C@H](Oc2cc(Oc3ccc(C(=O)N4CCC4)nc3)cc(C(=O)Nc3cnccn3)c2)C1=O [Example 12, 3-[6-(Azetidine-1-carbonyl)pyridin-3-yl]oxy-5-[(3S)-1-methyl-2-oxo-pyrrolidin-3-yl]oxy-N-pyrazin-2-yl-benzamide] | 430 | 300 |
| Cc1cnc(NC(=O)c2cc(Oc3ccc(C(=O)N4CCC4)nc3)cc(O[C@@H]3CCN(C4CC4)C3=O)c2)cn1 [Example 18, 3-[6-(Azetidine-1-carbonyl)pyridin-3-yl]oxy-5-[(3R)-1-cyclopropyl-2-oxo-pyrrolidin-3-yl]oxy-N-(5-methylpyrazin-2-yl)benzamide] | 7230 | 3340 |
| CN1CC[C@H](Oc2cc(Oc3ccc4c(c3)OCCCS4(=O)=O)cc(C(=O)Nc3cc[nH]n3)c2)C1=O [Example 25, 3-[(2,2-Dioxo-6-oxa-2-λ^6-thiabicyclo[5.4.0]undeca-7,9,11-trien-9-yl)oxy]-5-[(3S)-1-methyl-2-oxo-pyrrolidin-3-yl]oxy-N-(1H-pyrazol-3-yl)benzamide] | 40 | 30 |
| CN1CC[C@H](Oc2cc(Oc3ccc(C(=O)N4CCC4)nc3)cc(C(=O)Nc3ccccn3)c2)C1=O [Example 13, 3-[6-(Azetidine-1-carbonyl)pyridin-3-yl]oxy-5-[(3S)-1-methyl-2-oxo-pyrrolidin-3-yl]oxy-N-pyridin-2-yl-benzamide] | 170 | 430 |
| Cc1cnc(NC(=O)c2cc(Oc3ccc(C(=O)N4CCC4)nc3)cc(O[C@H]3CCN(C)C3=O)c2)cn1 [Example 1, 3-[6-(Azetidine-1-carbonyl)pyridin-3-yl]oxy-5-[(3S)-1-methyl-2-oxo-pyrrolidin-3-yl]oxy-N-(5-methylpyrazin-2-yl)benzamide] | 300 | 90 |
| CCN1CC[C@@H](Oc2cc(Oc3ccc(C(=O)N4CCC4)nc3)cc(C(=O)Nc3cnc(C)cn3)c2)C1=O [Example 22, -[6-(Azetidine-1-carbonyl)pyridin-3-yl]oxy-5-[(3R)-1-ethyl-2-oxo-pyrrolidin-3-yl]oxy-N-(5-methylpyrazin-2-yl)benzamide] | 6610 | 2370 |
